According to ChEMBL document CHEMBL5620353, “Novel antifungal triazoles with alkynyl-methoxyl side chains: Design, synthesis, and biological activity evaluation” (Eur J Med Chem, 2023):
Values after ≈ are worked out from the molar mass of the structure shown. Active and inactive are the calls of the source. The rule behind the calls is not given here.

Legend:
[1] = Cytotoxicity against HUVEC cells assessed as cell survival at <16 ug/ml incubated for 24 hrs by CCK-8 assay relative to control; format: toxicity, cell-based; settings: human, dose < 16 µg/ml, read-out: Survival
[2] = Hemolytic activity in rabbit RBC at 32 ug/ml incubated for 1 hr by absorbance based analysis; format: toxicity, cell-based, Oryctolagus cuniculus, Erythrocyte; settings: rabbit red blood cells, at 32 µg/mL, read-out: Activity
[3] = Cytotoxicity against HUVEC cells assessed as cell survival at 128 ug/ml incubated for 24 hrs by CCK-8 assay relative to control; format: toxicity, cell-based; settings: human, at 128 µg/mL, read-out: Survival
[4] = test system: Saccharomyces cerevisiae; experiment: Antifungal activity against recombinant Saccharomyces cerevisiae Y2300 overexpressing ScErg11 assessed as inhibition of fungal growth incubated for 48 hrs by microbroth dilution method; format: functional
[5] = test system: Candida albicans; experiment: Inhibition of biofilm formation in Candida albicans SC5314 at 64 ug/ml incubated for 24 hrs by XTT reduction assay relative to control; format: functional
[6] = test system: Candida albicans; experiment: Antifungal activity against Candida albicans SC5314 infected in Galleria mellonella larvae assessed as median survival time at 8 mg/kg measured after 10 days post inoculation; format: functional; settings: time 10 day
[7] = test system: Candida albicans; experiment: Antibiofilm activity against Candida albicans SC5314 preformed biofilms at 4 ug/ml incubated for 24 hrs by XTT reduction assay relative to control; format: functional; design: scale not given: the % may be the effect or the level left; settings: dose 4 µg/ml
[8] = test system: [Candida] auris; experiment: Antifungal activity against fluconazole-resistant Candida auris 919 assessed as inhibition of fungal growth incubated for 48 hrs by microbroth dilution method; format: functional; settings: Candidozyma auris
[9] = test system: Candida albicans; experiment: Antifungal activity against Candida albicans SC5314 infected in Galleria mellonella larvae assessed as delay in time of larval death at 8 mg/kg measured after 10 days post inoculation; format: functional, organism-based; settings: time 10.0 day
[10] = test system: Candida albicans; experiment: Antibiofilm activity against Candida albicans SC5314 preformed biofilms at 16 ug/ml incubated for 24 hrs by XTT reduction assay relative to control; format: functional; design: scale not given: the % may be the effect or the level left; settings: dose 16 µg/ml
[11] = test system: Saccharomyces cerevisiae; experiment: Antifungal activity against recombinant Saccharomyces cerevisiae Y525 overexpressing CaMdr1 assessed as inhibition of fungal growth incubated for 48 hrs by microbroth dilution method; format: functional
[12] = Selectivity index, ratio of IC50 for HUVEC cells to MIC for Candida glabrata 537; format: toxicity; settings: human, HUVEC cells versus Candida glabrata 537; read-out: Selectivity Index
[13] = test system: Saccharomyces cerevisiae; experiment: Antifungal activity against recombinant Saccharomyces cerevisiae Y570 overexpressing CaCdr1 assessed as inhibition of fungal growth incubated for 48 hrs by microbroth dilution method; format: functional
[14] = test system: [Candida] auris; experiment: Antifungal activity against fluconazole-resistant Candida auris 891 assessed as inhibition of fungal growth incubated for 48 hrs by microbroth dilution method; format: functional; settings: Candidozyma auris
[15] = test system: Candida albicans; experiment: Antifungal activity against Candida albicans SC5314 assessed as inhibition of fungal growth incubated for 48 hrs by microbroth dilution method; format: functional
[16] = test system: [Candida] auris; experiment: Antifungal activity against Candida auris 891 assessed as inhibition of fungal growth at 0.5 ug/ml incubated for 48 hrs by spot assay; format: functional, organism-based; settings: Candidozyma auris, dose 0.5 µg/ml
[17] = test system: Candida parapsilosis; experiment: Antifungal activity against Candida parapsilosis 22019 assessed as inhibition of fungal growth at 0.5 ug/ml incubated for 48 hrs by spot assay; format: functional, organism-based; settings: dose 0.5 µg/ml
[18] = test system: Candida albicans; experiment: Antifungal activity against Candida albicans SC5314 assessed as inhibition of fungal growth at 0.5 ug/ml incubated for 48 hrs by spot assay; format: functional, organism-based; settings: dose 0.5 µg/ml
[19] = test system: Candida albicans; experiment: Antifungal activity against Candida albicans assessed as increase in pseudohyphae at 16 ug/ml; format: functional, organism-based; settings: dose 16.0 µg/ml
[20] = test system: Saccharomyces cerevisiae; experiment: Antifungal activity against recombinant Saccharomyces cerevisiae Y2374 overexpressing CgErg11 assessed as inhibition of fungal growth incubated for 48 hrs by microbroth dilution method; format: functional
[21] = test system: Aspergillus fumigatus; experiment: Antifungal activity against Aspergillus fumigatus 7544 assessed as inhibition of fungal growth incubated for 72 hrs by microbroth dilution method; format: functional
[22] = test system: [Candida] auris; experiment: Antifungal activity against fluconazole-resistant Candida auris 918 assessed as inhibition of fungal growth incubated for 48 hrs by microbroth dilution method; format: functional; settings: Candidozyma auris
[23] = test system: Candida albicans; experiment: Antifungal activity against Candida albicans 10231 assessed as inhibition of fungal growth at 0.5 ug/ml incubated for 48 hrs by spot assay; format: functional, organism-based; settings: dose 0.5 µg/ml
[24] = test system: Candida albicans; experiment: Antifungal activity against fluconazole-resistant Candida albicans 904 assessed as inhibition of fungal growth incubated for 48 hrs by microbroth dilution method; format: functional
[25] = test system: Candida tropicalis; experiment: Antifungal activity against Candida tropicalis 8915 assessed as inhibition of fungal growth incubated for 48 hrs by microbroth dilution method; format: functional
[26] = test system: Candida albicans; experiment: Antifungal activity against fluconazole-resistant Candida albicans 901 assessed as inhibition of fungal growth incubated for 48 hrs by microbroth dilution method; format: functional
[27] = test system: Nakaseomyces glabratus; experiment: Antifungal activity against Candida glabrata 537 assessed as inhibition of fungal growth incubated for 48 hrs by microbroth dilution method; format: functional
[28] = test system: Saccharomyces cerevisiae; experiment: Antifungal activity against recombinant Saccharomyces cerevisiae Y2716 overexpressing CpErg11 Y132F CpCpr assessed as inhibition of fungal growth incubated for 48 hrs by microbroth dilution method; format: functional
[29] = test system: Candida albicans; experiment: Antifungal activity against Candida albicans SC5314 assessed as inhibition of fungal growth at 4 ug/ml measured after 12 hrs by optical density based method; format: functional, organism-based; settings: dose 4.0 µg/ml
[30] = test system: Cryptococcus neoformans; experiment: Antifungal activity against Cryptococcus neoformans 32,609 assessed as inhibition of fungal growth at 0.5 ug/ml incubated for 48 hrs by spot assay; format: functional, organism-based; settings: dose 0.5 µg/ml
[31] = test system: Candida albicans; experiment: Antifungal activity against Candida albicans SC5314 assessed as reduction in fungal growth and viability at 2 ug/ml incubated for 48 hrs by spot assay; format: functional, organism-based; settings: dose 2.0 µg/ml
[32] = test system: Saccharomyces cerevisiae; experiment: Resistance index, ratio of MIC for recombinant Saccharomyces cerevisiae Y525 overexpressing CaMdr1 to MIC for recombinant Saccharomyces cerevisiae Y2411 overexpressing ScErg11; format: functional
[33] = test system: Candida albicans; experiment: Antifungal activity against Candida albicans SC5314 infected in Galleria mellonella larvae assessed as larval survival rate at 8 mg/kg measured after 10 days post inoculation relative to control; format: functional; settings: SC5314, 240 h, time 10 day
[34] = test system: Candida albicans; experiment: Antibiofilm activity against Candida albicans SC5314 preformed biofilms at 64 ug/ml incubated for 24 hrs by XTT reduction assay relative to control; format: functional; design: scale not given: the % may be the effect or the level left; settings: dose 64 µg/ml
[35] = test system: Saccharomyces cerevisiae; experiment: Antifungal activity against recombinant Saccharomyces cerevisiae Y2411 overexpressing ScErg11 assessed as inhibition of fungal growth incubated for 48 hrs by microbroth dilution method; format: functional
[36] = target: Lanosterol 14-alpha demethylase (Candida albicans (strain SC5314 / ATCC MYA-2876) (Yeast), UniProt P10613); experiment: Inhibition of Lanosterol 14-alpha demethylase in Candida albicans SC5314 assessed as reduction in ergosterol level at 8 ug/ml incubated for 8 hrs by GC-MS analysis relative to control; settings: at 8 µg/mL
[37] = test system: Cryptococcus neoformans; experiment: Antifungal activity against Cryptococcus neoformans 32,609 assessed as inhibition of fungal growth incubated for 72 hrs by microbroth dilution method; format: functional
[38] = test system: Candida albicans; experiment: Antifungal activity against fluconazole-resistant Candida albicans 904 assessed as inhibition of fungal growth at 0.5 ug/ml incubated for 48 hrs by spot assay; format: functional, organism-based; settings: dose 0.5 µg/ml
[39] = test system: Candida albicans; experiment: Antifungal activity against Candida albicans assessed as reduction in hyphal length at 16 ug/ml; format: functional, organism-based; settings: dose 16.0 µg/ml
[40] = test system: Candida albicans; experiment: Antifungal activity against Candida albicans 10231 assessed as inhibition of fungal growth incubated for 48 hrs by microbroth dilution method; format: functional
[41] = test system: Saccharomyces cerevisiae; experiment: Antifungal activity against recombinant Saccharomyces cerevisiae Y2513 overexpressing ScErg11 Y140H assessed as inhibition of fungal growth incubated for 48 hrs by microbroth dilution method; format: functional
[42] = test system: Saccharomyces cerevisiae; experiment: Antifungal activity against recombinant Saccharomyces cerevisiae Y2462 overexpressing ScErg11 ScNcp1 assessed as inhibition of fungal growth incubated for 48 hrs by microbroth dilution method; format: functional
[43] = Selectivity index, ratio of IC50 for HUVEC cells to MIC for Candida albicans SC5314; format: toxicity; settings: human, HUVEC cells versus Candida albicans SC5314; read-out: Selectivity Index
[44] = test system: Candida albicans; experiment: Antifungal activity against Candida albicans SC5314 infected in Galleria mellonella larvae assessed as protection against fungal infection at 2 mg/kg measured after 10 days post inoculation; format: functional, organism-based; settings: time 10.0 day
[45] = test system: Pichia kudriavzevii; experiment: Antifungal activity against Candida krusei 4996 assessed as inhibition of fungal growth incubated for 48 hrs by microbroth dilution method; format: functional
[46] = test system: Saccharomyces cerevisiae; experiment: Antifungal activity against recombinant Saccharomyces cerevisiae Y2721 overexpressing CpErg11 CpCpr assessed as inhibition of fungal growth incubated for 48 hrs by microbroth dilution method; format: functional
[47] = test system: Nakaseomyces glabratus; experiment: Antifungal activity against Candida glabrata 537 assessed as inhibition of fungal growth at 0.5 ug/ml incubated for 48 hrs by spot assay; format: functional, organism-based; settings: dose 0.5 µg/ml
[48] = test system: Saccharomyces cerevisiae; experiment: Antifungal activity against recombinant Saccharomyces cerevisiae Y2459 overexpressing CaErg11 CaCpr assessed as inhibition of fungal growth incubated for 48 hrs by microbroth dilution method; format: functional
[49] = test system: Candida parapsilosis; experiment: Antifungal activity against Candida parapsilosis 22019 assessed as inhibition of fungal growth incubated for 48 hrs by microbroth dilution method; format: functional; settings: Lodderomyces parapsilosis
[50] = test system: Saccharomyces cerevisiae; experiment: Antifungal activity against recombinant Saccharomyces cerevisiae Y2301 overexpressing ScErg11 Y140F assessed as inhibition of fungal growth incubated for 48 hrs by microbroth dilution method; format: functional
[51] = test system: Candida albicans; experiment: Antifungal activity against Candida albicans 904 assessed as reduction in fungal growth and viability at 2 ug/ml incubated for 48 hrs by spot assay; format: functional, organism-based; settings: dose 2.0 µg/ml

Chain of Lanosterol 14-alpha demethylase (P10613 whole entry): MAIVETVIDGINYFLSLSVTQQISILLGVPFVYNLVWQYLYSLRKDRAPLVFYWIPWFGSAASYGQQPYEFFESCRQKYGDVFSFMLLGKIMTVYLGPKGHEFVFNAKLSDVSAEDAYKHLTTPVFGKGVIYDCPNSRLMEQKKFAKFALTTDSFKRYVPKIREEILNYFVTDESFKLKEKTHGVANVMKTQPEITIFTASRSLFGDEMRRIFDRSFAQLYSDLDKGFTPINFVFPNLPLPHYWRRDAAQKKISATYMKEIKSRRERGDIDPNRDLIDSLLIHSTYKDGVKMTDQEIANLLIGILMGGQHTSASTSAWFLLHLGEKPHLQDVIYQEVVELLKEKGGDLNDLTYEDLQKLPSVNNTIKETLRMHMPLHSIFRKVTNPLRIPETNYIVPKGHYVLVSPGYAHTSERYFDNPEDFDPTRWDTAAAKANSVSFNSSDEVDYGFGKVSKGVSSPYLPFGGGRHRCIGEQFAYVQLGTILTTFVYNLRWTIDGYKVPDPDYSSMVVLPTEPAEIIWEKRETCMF

Molecule `C[C@@H]1[C@H](O)[C@@H](C)/C=C/C=C/C=C/C=C/C=C/C=C/C=C/[C@H](O[C@@H]2O[C@H](C)[C@@H](O)[C@H](N)[C@@H]2O)C[C@@H]2O[C@](O)(C[C@@H](O)C[C@@H](O)[C@H](O)CC[C@@H](O)C[C@@H](O)CC(=O)O[C@H]1C)C[C@H](O)[C@H]2C(=O)O` [AMPHOTERICIN B] has a viability at 24 h [1] of 50%, a hemolysis at 1 h, 32 ug/ml [2] greater than 50% and a viability at 24 h, 128 ug/ml [3] of 26.1%.

In the case of `OC(Cn1cncn1)(Cn1cncn1)c1ccc(F)cc1F` [FLUCONAZOLE], the MIC [4] is reported as 4 µg/mL, the inhibition at 64 µg/mL [5] is reported as 26.1% and the MST [6] is reported as 10 days. The Activity [7] was 31.38%, the MIC [8] was greater than 256 µg/mL and the Activity [9] was “Active”. For the same molecule, the Activity [10] was 34.47%, the MIC [11] was 32 µg/mL and the selectivity ratio [12] was 50. It also gave an MIC [13] greater than 64 µg/mL, an MIC [14] greater than 256 µg/mL and an MIC [15] of 0.5 µg/mL (≈ 1.63 µM). For the same molecule, the Activity [16] was “inactive”, the Activity [17] was “inactive” and the Activity [18] was “inactive”. For the same molecule, the Activity [19] was “Active”, the MIC [20] was 4 µg/mL and the MIC [21] was greater than 64 µg/mL. The MIC [22] was greater than 256 µg/mL, the Activity [23] was “inactive” and the MIC [24] was greater than 256 µg/mL. The MIC [25] was greater than 64 µg/mL, the MIC [26] was greater than 256 µg/mL and the MIC [27] was 1 µg/mL (≈ 3.27 µM). The MIC [28] was 32 µg/mL, the Activity [29] was “Active” and the Activity [30] was “inactive”. For the same molecule, the Activity [31] was “Active”, the Ratio [32] was 32 and the survival at 8 mg/kg [33] was 46.7%. For the same molecule, the Activity [34] was 33.39%, the MIC [35] was 1 µg/mL and the “inhibition (INH)” value [36] was ~ 100%. The MIC [37] was 2 µg/mL (≈ 6.53 µM), the Activity [38] was “inactive” and the Activity [39] was “Active”. It also gave an MIC [40] greater than 64 µg/mL, an MIC [41] of 8 µg/mL and an MIC [42] of 8 µg/mL. The selectivity ratio [43] was 100, the Activity [44] was “Active” and the MIC [45] was 64 µg/mL (≈ 209 µM). For the same molecule, the MIC [46] was 4 µg/mL, the Activity [47] was “inactive” and the MIC [48] was 2 µg/mL. For the same molecule, the viability at 24 h, 128 ug/ml [3] was 43.7%, the MIC [49] was 4 µg/mL (≈ 13.1 µM) and the MIC [50] was 8 µg/mL. For the same molecule, the Activity [51] was “Active”.
